Measured values published in patent publication US20240285670A1, “THERAPEUTIC TREATMENT OF TUMORS BY BLOCKING THE HEME SYNTHESIS-EXPORT AXIS” (Università degli Studi di Torino, priority 2021, published 2024).

Columns and labels:
Format in all cases: cell-based, human
[1] = test system: FLVCR1a; assay: qRT-PCR analysis of FLVCR1a expression in SHSY5Y cells; details: 5 mM ALA for 15 hours vs non-treated
Protocol: (A) Heme content in SHSY5Y cells non-treated (NT) or treated with 5 mM ALA for 15 hours. Values are expressed as pmol heme/mg protein. Data represent mean±SEM, n=3; *=P<0.05. (B, C) qRT-PCR analysis of the expression of ALAS1 (B) and FLVCR1a (C) in SHSY5Y cells non-treated (NT) or treated with 5 mM ALA for 15 hours. Transcript abundance, normalized to beta-actin mRNA expression, is expressed as a fold increase over a calibrator sample. Data represent mean±SEM, n=4. For statistical analyses, an unpaired Student's t-test was used; *p<0.05. (D) qRT-PCR analysis of the expression of ALAS1 in SKCO1 cells untreated (NT) or treated with 5 mM ALA for 24 hours. Transcript abundance, normalized to beta-actin mRNA expression, is expressed as a fold increase over a calibrator sample. Data represent mean±SEM, n=5. […] Band intensities were measured by densitometry and normalized to beta-actin expression. […] (F) Proliferation of SHSY5Y cells assessed by crystal violet staining at different time points (starting from the day after plating, named “day 0”). Treatment with 5 mM ALA occurred at “day 0” and cells were monitored until the end of the experiment without medium refresh. […] (G) SKCO1 cells viability measured by the CellTiter-Fluor Cell Viability Assay (Promega, Madison, WI USA, catalog n°G6080) at different time points, starting from the day after plating (named “day 0”), as a readout of cell proliferation. […]

[2] = test system: BTECs; assay: Wound healing assay (BTECs migration); details: FLVCR1a-silenced vs scramble shRNA BTECs
Description: (§1) (A) BTECs counting, as a readout of cell proliferation, at the indicated time points. […] Data represent mean±SEM, n=4. For statistical analyses, a two-way analysis of variance was used, followed by the Bonferroni correction for multiple group comparisons; ***p<0.001. (B) Quantification of BTECs migration rate in wound-healing assay. […] Data represent mean±SEM, n=32. For statistical analyses, a nonparametric unpaired Mann-Whitney test was used; ***p<0.001. (C) In vitro tubulogenesis assay on matrigel. […] The number of nodes counted within the neo-formed vascular networks is shown. Data represent mean±SEM; n=10. For statistical analyses, a nonparametric unpaired Mann-Whitney test was used; **p<0.01.
To evaluate cell motility, BTECs were grown to confluence in 24-well plates coated with 1% Gelatin from bovine skin (Sigma-Aldrich, St. Louis, MO USA, catalog n° G9391). […] Cell migration into the wound was monitored using a Nikon Eclipse T-E microscope with a 4× objective. […] Three separate wells were used for each condition and, in each well, at least six fields were analysed for each condition. Cell migration into the wound was assessed using Fiji open source software (Schindelin et al., 2012) (http://fiji.sc/ RRID:SCR_002285), by measuring the distance between the two sides of the wound at each time point. Data were expressed as percentage of cell migration. […]

[3] = test system: BTECs; assay: BTECs counting (cell proliferation); details: FLVCR1a-silenced vs scramble shRNA BTECs, 24, 48 and 72 hours
Description: as §1
For cell counting, 1*10^4 BTECs were seeded in 12-well plates and counted at 24, 48 and 72 hours after plating, as a readout of cell proliferation. Three independent experiments were performed.

Compound	FLVCR1a transcript levels [1]	migratory rate [2]	cell proliferation (cell counting) [3]
Cl.NCC(=O)CCC(=O)O [5-ALA, 5-Aminolevulinic acid hydrochloride]	reduced	–	–
FLVCR1a shRNA: shRNA specifically down-regulating FLVCR1a without targeting FLVCR1b; pLKO.1 lentiviral clone TRCN0000059599, antisense SEQ ID No.: 2 (antisense TTGCTAATGATGCTGTACTGG; sense CCAGTACAGCATCATTAGCAA)	–	reduction of the migratory rate	reduced proliferation
